# Experimental data as given in patent publication US20090264664A1, “PREPARATION FOR EXTERNAL APPLICATION COMPRISING SALT OF MAST CELL DEGRANULATION INHIBITOR HAVING CARBOXYL GROUP WITH ORGANIC AMINE” (MEDRX CO., LTD., priority 2005, published 2009).
# Test: Solubility of tranilast in various solvents with or without triisopropanolamine (Example 3)
# Format: physicochemical
# Set-up: key: ∘: complete dissolution of tranilast; x: no dissolution of tranilast
# Settings: tranilast 1 wt %
# Method: For preparation of test solutions (blending corresponding to 1 mol of triisopropanolamine), tranilast (1 wt %) and triisopropanolamine (0.56 wt %) were added, and glycerol, propylene glycol, butylene glycol, salicylic acid ethylene glycol, diethyl sebacate and isopropyl myristate were used as a balance to achieve 100 wt %, whereby each test solution was prepared.
# For preparation of comparison control (without triisopropanolamine), tranilast (1 wt %) was added, and propylene glycol, salicylic acid ethylene glycol, diethyl sebacate and isopropyl myristate were used as a balance to achieve 100 wt %, whereby each test solution was prepared.
# Using the test solutions and comparative controls prepared above, the solubility of tranilast in various solvents with or without triisopropanolamine was examined.
structure (smiles),measurement,setting,value
CC(O)CN(CC(C)O)CC(C)O.COc1ccc(/C=C/C(=O)Nc2ccccc2C(=O)O)cc1OC [1:1 salt with triisopropanolamine],solubility of tranilast in solvent,butylene glycol,∘
same,solubility of tranilast in solvent,diethyl sebacate,∘
same,solubility of tranilast in solvent,glycerol,∘
same,solubility of tranilast in solvent,isopropyl myristate,x
same,solubility of tranilast in solvent,propylene glycol,∘
same,solubility of tranilast in solvent,salicyl acid ethylene glycol,∘
